Entries after “also recorded” stand apart in the source; their conditions may differ.
How the values were obtained:
[1] = test system: rats subjected to heterotypic chronic stress; assay: Viscero-motor response (VMR) to graded colorectal distension after nine-day heterotypic chronic stress; type: in vivo, rat; conditions: for heterotypic chronic stress-induced increase in viscero-motor response to colorectal distension: entire nine-day HeCS, post-HeCS vs baseline
Method: Two electrodes were implanted under general 2% isofluorane anesthesia in the external oblique abdominal muscle and exteriorized in the subscapular region. Rats were allowed one week to recover from surgery. Under 2% isofluoruthane anesthesia, a 5 cm long balloon constructed from a surgical glove finger and attached to tygon tubing was inserted 7 cm into the descending colon and rectum. Rats were placed in small Lucite cubicles (20×8×8 cm) and allowed to adapt for 30 minutes. colorectal distension was performed by rapidly inflating the balloon to constant pressures: 20, 30, 40, 50, 60 & 80 mm Hg, for 20 seconds followed by 2-minute rest. Electromygraphic (EMG) activity from the external oblique muscle was recorded on Biopac equipment (Biopac Systmes, Inc., Santa Barbara, Calif.). The EMG signal was amplified, filtered at 300 Hz and digitized. The area under the curve (AUC) for the EMG signal during each 20 seconds of distention was calculated using Acknowledge software (Biopac Systmes, Inc). The net value for each distension period was calculated by subtracting the baseline value derived from the average AUC for 20 seconds before and 20 seconds after the distention period.
(§1) A catheter (ReCathco) was inserted through the occipital membrane onto the top of the spinal cord. The end of the catheter rested at about L1. After measurement of baseline response to colorectal distension, the catheter was primed with the appropriate solution and connected to subcutaneously implanted osmotic pump (Durect Corporation, Cupertino, Calif.) filled with appropriate solution. The pump delivered a constant infusion of 0.93 μL/hour for 10.6 days. K252a, a non-specific antagonist of tyrosine kinase receptors (trk) including the high affinity trkA receptors (11), was dissolved in DMSO and administered in sterile saline containing 10% DMSO at a concentration of 0.067 mg/mL. Each rat received an initial bolus infusion of 0.67 μg followed by 1.5 μg/day from the osmotic pump. Previously validated anti-sense and missense oligonucleotides were used (12), TrkA antisense: […] (SEQ ID NO: 1) and mismatch: […] (SEQ ID NO: 2). Oligos were HPLC purified and purchased from Invitrogen. Rats received an initial bolus dose of 10 nmole in 10 uL. The catheter was attached to the pump, which delivered oligo at a rate of 0.5 nmole/hour. Stress protocol started 24-hours after attachment of the pump. Nerve growth factor neutralizing antibody (16 μg/kg i.p. in 0.5) was purchased from R&D systems (Minneapolis, Minn.) and reconstituted in phosphate buffered saline (PBS). Control rats received PBS containing an equal concentration of goat non-immune serum.

[2] = test system: TL colon dorsal root ganglia neurons; assay: Patch-clamp electrophysiology of DiI-labeled colon-specific TL dorsal root ganglia neurons from treated rats; type: in vivo, rat
Method: The lipid soluble fluorescent dye 1,1′dioleyl-3,3,3′,3′-tetramethylindocarbocyanine methanesulfonate (DiI-I), 25 mg in 0.5 mL methanol, was injected in 2 μL volumes at eight to ten sites in distal colon wall starting at the pelvic girdle and moving toward the cecum. TL dorsal root ganglia neurons were isolated from dorsal root ganglia T13, L1 and L2 were dissected out and put in an ice-cold, oxygenated dissecting solution, containing (in mM): 130 NaCI, 5 KCI, 2 KH2PO4, 1.5 CaCl2, 6 MgSO4, glucose, and 10 HEPES, pH 7.2 (osmolarity, 305 mOsm), as described (10). Connective tissue free ganglia were transferred to a 10 ml dissecting solution containing collagenase D (1.8 mg/mL, Roche) and trypsin (1.0 mg/mL; Sigma, St. Louis, Mo.), and incubated for 1.5 hours at 34.5° C. DRGs are then taken from the enzyme solution, washed, and put in 2 mL of the dissecting solution containing DNase (0.5 mg/mL; Sigma). Cells were subsequently dissociated by trituration with fire-polished glass pipettes and placed on acid-cleaned glass cover slips. Dorsal root ganglia neurons containing the retrograde label were identified as bright red neurons using fluorescent microscopy with a rhodamine filter (excitation 546, barrier filter at 580) and Hoffman contrast optics. For current clamp experiment, cells were superfused (1.5 mL/min) at room temperature with control external solution containing (in mM): 130 NaCI, 5 KCI, 2 KH2PO4, 2.5 CaCl2, 1 MgCl2, 10 HEPES, and 10 glucose, pH adjusted to 7.4 with NaOH (295-300 mOsm). Recording pipettes pulled from borosilicate glass tubing had resistance of 1-4 MΩ. For perforated patch recording, pipette tip was initially filled with amphotericin-free pipette solution, containing (in mM): 100 KmeSO3, 40 KCI, and 10 HEPES, pH 7.25 adjusted with KOH (osmolarity, 290 mOsm). The pipette was then backfilled with same pipette solution containing amphotericin B (300 μg/ml). Whole cell currents and voltage were recorded with Dagan 3911 patch clamp amplifier; and data were acquired and analyzed by pCLAMP 9.2 (Axon Instruments). The currents were filtered at 2-5 kHz and sampled at 50 or 100 μsec per point.
as §1

[3] = test system: mucosal afferent mechanoreceptors; conditions: IBS patients; cited from earlier work
nerve growth factor = assay: Nerve growth factor expression in distal colon tissue strips incubated in vitro with norepinephrine; type: cell-based, rat
Method: The distal colon, about 6 cm long was opened along the mesentery and dissected free of mucosa/submucosa and submucosal plexus. Tissues were either snap frozen in liquid nitrogen or washed in Hanks balanced salt solution and incubated in DME+10% fetal calf serum+penicillin/streptomycin containing norepinephrine for 24-hours. Tissue was homogenized in PBS+protease inhibitor cocktail purchased from Sigma and centrifuged at 13,000 g for 10 minutes. Nerve growth factor protein was measured by ELISA from R&D Systems (Minneapolis, Minn.).

[4] = exogenous administration; cited from earlier work
[5] = test system: TL colon dorsal root ganglia neurons; assay: Electrophysiology of TL colon dorsal root ganglia neurons incubated in vitro with nerve growth factor; type: cell-based, rat; conditions: 24 hours in vitro, high (250 ng/mL) vs low (2.5 ng/mL)
Method: The lipid soluble fluorescent dye 1,1′dioleyl-3,3,3′,3′-tetramethylindocarbocyanine methanesulfonate (DiI-I), 25 mg in 0.5 mL methanol, was injected in 2 μL volumes at eight to ten sites in distal colon wall starting at the pelvic girdle and moving toward the cecum. TL dorsal root ganglia neurons were isolated from dorsal root ganglia T13, L1 and L2 were dissected out and put in an ice-cold, oxygenated dissecting solution, containing (in mM): 130 NaCI, 5 KCI, 2 KH2PO4, 1.5 CaCl2, 6 MgSO4, glucose, and 10 HEPES, pH 7.2 (osmolarity, 305 mOsm), as described (10). Connective tissue free ganglia were transferred to a 10 ml dissecting solution containing collagenase D (1.8 mg/mL, Roche) and trypsin (1.0 mg/mL; Sigma, St. Louis, Mo.), and incubated for 1.5 hours at 34.5° C. DRGs are then taken from the enzyme solution, washed, and put in 2 mL of the dissecting solution containing DNase (0.5 mg/mL; Sigma). Cells were subsequently dissociated by trituration with fire-polished glass pipettes and placed on acid-cleaned glass cover slips. […] Whole cell currents and voltage were recorded with Dagan 3911 patch clamp amplifier; and data were acquired and analyzed by pCLAMP 9.2 (Axon Instruments). […]

trkA = assay: Western blot of trkA expression in dorsal root ganglia after intrathecal oligonucleotide; type: in vivo, rat
Method: as §1

[6] = HeCS rats, intrathecal application
[7] = in vitro incubation for 24 hours
[8] = HeCS rats, 200 μg/kg intraluminal in distal colon one day before HeCS
[9] = sham stressed rats, 200 μg/kg intraluminal in distal colon
[10] = intrathecal oligonucleotide, bolus 10 nmole then 0.5 nmole/hour

For `COC(=O)[C@@]1(O)C[C@H]2O[C@]1(C)n1c3ccccc3c3c4c(c5c6ccccc6n2c5c31)C(=O)NC4` [k252a, K252a], the “heterotypic chronic stress-induced increase in viscero-motor response to colorectal distension” value ([1]; intrathecal osmotic pump, bolus 0.67 μg then 1.5 μg/day) was “no significant difference”, the “heterotypic chronic stress-induced increase in viscero-motor response to colorectal distension” value ([1]; intrathecal osmotic pump, bolus 0.67 μg then 1.5 μg/day, listed as k252A) was “suppressed” and the “HeCS-induced decrease in rheobase” value [2, 6] was “significantly attenuated”. The “HeCS-induced depolarization of resting membrane potential” value [2, 6] was “significantly attenuated”, the “HeCS-induced increase in the number of action potentials at 2× rheobase” value [2, 6] was “significantly attenuated” and the “HeCS-induced increase in excitability of TL colon dorsal root ganglia neurons” value ([2]; HeCS rats, intrathecal treatment) was “blocked”.

For `CCN(CC)CC(=O)Nc1c(C)cccc1C` [lidocaine], the “pain-perception to rapid balloon distension” value [3] is listed as “does not affect” and the “sensory perception to slow distension” value [3] is listed as “blocks”.

In the case of `NC[C@H](O)c1ccc(O)c(O)c1` [norepinephrine], the “expression of nerve growth factor in mucosa/submucosa” value (nerve growth factor; [7]) is reported as “concentration-dependently increased” and the “expression of nerve growth factor in muscularis externa/serosa” value (nerve growth factor; [7]) is reported as “concentration-dependently increased”.

For `C=C(C)[C@]12C[C@@H](C)[C@@]34O[C@](Cc5ccccc5)(O[C@@H]1[C@@H]3C=C(COC(=O)Cc1ccc(O)c(OC)c1)C[C@]1(O)C(=O)C(C)=C[C@@H]41)O2` [resiniferatoxin], the “induction of visceral hypersensitivity to colorectal distension” value ([1]; desensitization of afferent nerve endings, 200 μg/kg intraluminal in distal colon one day before HeCS) was “blocked the induction of visceral hypersensitivity”, the “HeCS-induced increase in the number of action potentials at 2× rheobase” value [2, 8] was “significantly blocked” and the “HeCS-induced reduction in rheobase” value [2, 8] was “significantly blocked”. The resting membrane potential [2, 9] was “no significant effect” and the rheobase [2, 9] was “no significant effect”.

For “MM oligonucleotide: mismatch control oligonucleotide: CAACATCGAAGTGACGAGACCG (SEQ ID NO: 2) (listed as DNA, chemistry not given here)”, the “heterotypic chronic stress-induced increase in viscero-motor response to colorectal distension” value [1, 10] was “significant increase”.

For astressin, the “norepinephrine-induced expression of nerve growth factor in mucosa/submucosa” value (nerve growth factor; in vitro, with norepinephrine) was “blocked this increase; also recorded: blocked this effect” and the “norepinephrine-induced expression of nerve growth factor in muscularis externa/serosa” value (nerve growth factor; in vitro, with norepinephrine) was “had no effect; also recorded: no significant effect”.

For “nerve growth factor: neurotrophin, nerve growth factor (NGF), applied to neurons in vitro at 250 or 2.5 ng/mL”, the inflammatory hyperalgesia [4] is given as “mimics inflammatory hyperalgesia”, the resting membrane potential [5] is given as “significant decline” and the rheobase [5] is given as “significant decline”.

With “trkA AS oligonucleotide: TrkA antisense: CATCAACGAAGTCACCAGACCG (SEQ ID NO: 1), previously validated, HPLC purified, from Invitrogen (listed as DNA, chemistry not given here)” the “heterotypic chronic stress-induced increase in viscero-motor response to colorectal distension” value [1, 10] was “no significant difference”, the “heterotypic chronic stress-induced increase in viscero-motor response to colorectal distension” value ([1]; intrathecal oligonucleotide, bolus 10 nmole then 0.5 nmole/hour, listed as anti-sense ODN) was “suppressed” and the “expression of trkA in TL dorsal root ganglia, relative to rats treated with MM oligonucleotide” value (trkA; intrathecal, catheter tip at about L1) was “about 50%”. The “trkA levels in LS DRG” value (trkA; several segments caudal to the catheter tip, vs MM oligonucleotide) was “No significant difference” and the “trkA levels in thoracic dorsal root ganglion” value (trkA; several segments rostral to the catheter tip, vs MM oligonucleotide) was “No significant difference”.

Reference: US20110020362A1, “Adrenergic stimulation mediates hypersensitivity by inducing nerve growth factor expression” (priority 2009, published 2011)
